From patent US8586542B2, “Small molecule apoptosis promoters” (Joyant Pharmaceuticals, Inc., priority 2006, dated 2013) come the findings set out here.

Assay [1] relates to HCC461 cells. The assay can be described thus: Cell viability assay in HCC461 cells (WST-1). It counts as cell-based. The following applies: HCC461; 48 hrs incubation, WST-1 viability; read-out: HCC461 cell. Here is the method: HCC461 cells plated in 96 well plates at 5×10^4/ml cell density are treated with 50× synthetic Smac mimetic compounds (final concentration range between 30 uM and 0.001 uM). After 48 hrs incubation at 37° C. and 5% CO2, viability of the cells are measured using Cell Proliferation Reagent WST-1 assay kit (Roche Cat #11 644 807 001).
The tetrazolium salts are cleaved to formazan by cellular enzymes. An expansion in the number of viable cells results in an increase in the overall activity of mitochondrial dehydrogenases in the samples. This augmentation in the enzyme activity leads to an increase in the amount of formazan dye formed, which directly correlates to the number of metabolically active cells in the culture. Quantification of the formazan dye produced by metabolically active cells by using a microplate (ELISA) reader at 420-480 nm.
In general terms: Formazan colour is commonly taken as a measure of viable cells.

In assay [2] the test system is Caspase3 in Hela S100. The assay can be described thus: In-vitro caspase-3 activation assay in Hela S100 extract. It counts as biochemical. The following applies: 100 nM compound, Hela S100, 1 mM dATP; slope versus control (compound 1 = Caspase std.). How it is done: Caspase3 in most cell extracts can be activated by the addition of 1 mM dATP through the mitochondria caspase pathway. […] Taking advantage of this feature, we use 100 nM of synthetic Smac mimetic compound to test its ability to eliminate IAPB in the Hela S100 and fully induce Caspase3 activity. The In Vitro Caspase3 assay is carried out at 30° C., incubating 100 nM compounds with 30 ug of Hela S100, 1 mM dATP, 10 uM Caspase3 fluorogenic substrate (Caspase3 Substrate II, Fluorogenic, #235425 from Calbiochem). The readout is caspase-3 activity represented by relative fluorogenic unit, which is recorded kinetically. The slope in linear region of the curve for each compound is calculated.
The ratio of each synthetic compound's slope versus the slope of control reflects in vitro caspase-3 activation ability of compounds.

The target in assay [3] is T1, truncated XIAP containing only BIR1, BIR2, and BIR3 domains (Homo sapiens, UniProt P98170).
T1 construct: truncated XIAP containing only BIR1, BIR2, and BIR3 domains
As to the kind of experiment: Fluorescent polarization assay (Bir binding). Conditions: competition with 2 nM fluorescein labeled AVPI peptide, room temperature, 1 hour. Here is the method:
Increasing concentrations of Smac compounds are incubated with 2 nM of labeled peptide (fluorescein labeled 10 mer peptide with AVPI 4 amino acids at its N terminus-Alexa Fluor 488) and truncated XIAP containing only BIR1, BIR2, and BIR3 domains at room temperature for 1 hour. Fluorescence reading, indicative of the bound portion of the labeled peptide, is measured in milipolarization units (mP). The more compound added, less fluorescein labeled peptide bind to the protein due to the competitive binding and less fluorescence signal is released.
Based on this principle, we obtain the Ki value that evaluates compound's binding affinity.

Assay [4] deals with Wap-ras tumors. As to the kind of experiment: In vivo therapy in the WAP-RAS transgenic model. Further details: species or system mice. The following applies: mimetic 20 mpk po; Paclitaxel 5 mpk ip.
Method: Mimetic and Paclitaxel combination efficacy is also evaluated in the Wap-ras transgenic model.
Mimetics (20 mpk/dosing po) are dissolved in 20% hydroxyl-propyl-betacyclodexatrin (Vehicle I). 0.2 ml of mimetic solution is the oral dosing volume. Paclitaxel (5 mpk/dosing ip) is dissolved in a diluted ethanol/cremophor EL solution (vehicle II) and the i.p. dosing volume for paclitaxel is 0.1 ml.
The mice are weighed, randomized, and ear-marked on Day 0. Mimetic treatment and Vehicle I treatment is begun on Day 1 and continued every 12 hours until Day 21. Paclitaxel and Vehicle II treatments are started on Day 4 and continued daily on Day 5, 6, and 7.

Molecules are shown by their SMILES.

T1 sequence (P98170 1-356 limits assumed): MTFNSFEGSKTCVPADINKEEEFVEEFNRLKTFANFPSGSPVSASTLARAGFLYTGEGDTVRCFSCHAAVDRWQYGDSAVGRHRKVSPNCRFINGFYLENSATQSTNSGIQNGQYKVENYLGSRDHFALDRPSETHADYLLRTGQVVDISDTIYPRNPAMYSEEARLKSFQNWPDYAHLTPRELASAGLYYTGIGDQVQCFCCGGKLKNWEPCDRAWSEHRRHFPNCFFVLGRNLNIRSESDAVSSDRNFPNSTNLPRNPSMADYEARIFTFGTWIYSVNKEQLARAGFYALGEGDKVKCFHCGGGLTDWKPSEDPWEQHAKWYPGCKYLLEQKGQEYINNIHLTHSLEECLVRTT

`CN[C@@H](C)C(=O)N[C@H](C(=O)N1CCC[C@H]1C(=O)N[C@@H]1CCCc2ccccc21)[C@@H](C)OCc1cn(CCn2cc(CO[C@H](C)[C@H](NC(=O)[C@H](C)NC)C(=O)N3CCC[C@H]3C(=O)N[C@@H]3CCCc4ccccc43)nn2)nn1.Cl.Cl` [Compound 22]: the IC50 in assay [1] is 810 nM. Moreover, in assay [2], the Caspase % is 106%. The Bir binding in assay [3] was 0.13 µM.
For `CN[C@@H](C)C(=O)N[C@H](C(=O)N1CCC[C@H]1C(=O)N[C@@H]1CCCc2ccccc21)[C@@H](C)OCc1nnn2c1-c1c(CO[C@H](C)[C@H](NC(=O)[C@H](C)NC)C(=O)N3CCC[C@H]3C(=O)N[C@@H]3CCCc4ccccc43)nnn1CC2.Cl.Cl` [Compound 23] the same measures were 490 nM, 109% and 0.13 µM.
Taken in the same sequence, the figures for `CN[C@@H](C)C(=O)NC(C(=O)N[C@@H](Cc1cn(C/C=C\Cn2cc(C[C@H](NC(=O)[C@@H](NC(=O)[C@H](C)NC)C(C)(C)C)C(=O)N[C@@H]3CCCc4ccccc43)nn2)nn1)C(=O)N[C@@H]1CCCc2ccccc21)C(C)(C)C.Cl.Cl` (stereo partly shown) [Compound 24] were 1400 nM, 81% and 1.5 µM.
Regarding `CN[C@@H](C)C(=O)N[C@@H](CC#Cc1ccc([C@H](NC(=O)[C@H](C)NC)C(=O)N2CCC[C@H]2C(=O)N[C@@H]2CCCc3ccccc32)cc1)C(=O)N1CCC[C@H]1C(=O)N[C@@H]1CCCc2ccccc21.Cl.Cl` [Compound 26], the IC50 in assay [1] was determined as 100 nM. For the same compound, the Caspase % in assay [2] came to 106%. The compound also came in with a Bir binding in assay [3] of 0.235 µM.
Taken in the same sequence, the figures for `CN[C@@H](C)C(=O)N[C@@H](CCCc1ccc([C@H](NC(=O)[C@H](C)NC)C(=O)N2CCC[C@H]2C(=O)N[C@@H]2CCCc3ccccc32)cc1)C(=O)N1CCC[C@H]1C(=O)N[C@@H]1CCCc2ccccc21` [Compound 28] were 70 nM, 102% and 0.2 µM.
For `CN[C@@H](C)C(=O)N[C@H](C(=O)N1CCC[C@H]1C(=O)N[C@@H]1CCCc2ccccc21)c1ccc(C#CCO[C@H](C)[C@H](NC(=O)[C@H](C)NC)C(=O)N2CCC[C@H]2C(=O)N[C@@H]2CCCc3ccccc32)cc1` [Compound 32] the same measures were 5 nM, 109% and 0.08 µM.
For `CN[C@@H](C)C(=O)N[C@@H](Cc1ccc(C#CC[C@H](NC(=O)[C@H](C)NC)C(=O)N2CCC[C@H]2C(=O)N[C@@H]2CCCc3ccccc32)cc1)C(=O)N1CCC[C@H]1C(=O)NC1CCCc2ccccc21.Cl` (stereo partly shown) [Compound 36] the same measures were 50 nM, 98% and 0.19 µM.
Take `CC[C@H](NC)C(=O)N[C@H](C(=O)N1CCCC1)c1ccc(C#CCO[C@H](C)[C@H](NC(=O)[C@H](C)NC)C(=O)N2CCC[C@H]2C(=O)N[C@@H]2CCCc3ccccc32)cc1.Cl.Cl` [Compound 37]: the IC50 in assay [1] was determined as 200 nM. The Caspase % in assay [2] came to 59%. In assay [3], this compound returned a Bir binding of 0.3 µM.
Taken in the same sequence, the figures for `CC[C@H](NC)C(=O)N[C@H](C(=O)N1CCC[C@H]1C(=O)N[C@@H]1CCCc2ccccc21)c1ccc(C#CCO[C@H](C)[C@H](NC(=O)[C@H](C)NC)C(=O)N2CCC[C@H]2C(=O)N[C@@H]2CCCc3ccccc32)cc1.Cl.Cl` [Compound 39] were 160 nM, 102% and 0.18 µM.
For `CN[C@@H](C)C(=O)N[C@H](C(=O)N1CCCC1)c1ccc(C#CCO[C@H](C)[C@H](NC(=O)[C@H](C)NC)C(=O)N2CCC[C@H]2C(=O)N[C@@H]2CCCc3ccccc32)cc1.Cl.Cl` [Compound 40] the same measures were 30 nM, 85% and 0.15 µM.
For `CN[C@@H](C)C(=O)N[C@@H](CCCc1ccc(C[C@H](NC(=O)[C@H](C)NC)C(=O)N2CCC[C@H]2C(=O)N[C@@H]2CCCc3ccccc32)cc1)C(=O)N1CCC[C@H]1C(=O)N[C@@H]1CCCc2ccccc21.Cl.Cl` [Compound 41] the same measures were 20 nM, 99% and 0.3 µM.
For `C=C(C#CCO[C@H](C)[C@H](NC(=O)[C@H](C)NC)C(=O)N1CCC[C@H]1C(=O)N[C@@H]1CCCc2ccccc21)CO[C@H](C)[C@H](NC(=O)[C@H](C)NC)C(=O)N1CCC[C@H]1C(=O)N[C@@H]1CCCc2ccccc21.Cl.Cl` [Compound 42], the IC50 in assay [1] is 240 nM. Moreover, the Caspase % in assay [2] amounted to 109%. In assay [3], the Bir binding came out at 0.2 µM.
As for `CN[C@@H](C)C(=O)N[C@@H](Cc1ccc(OC/C=C\COc2ccc(C[C@H](NC(=O)[C@H](C)NC)C(=O)N3CCCC3C(=O)N[C@@H]3CCCc4ccccc43)cc2)cc1)C(=O)N1CCCC1C(=O)N[C@@H]1CCCc2ccccc21.Cl.Cl` (stereo partly shown) [Compound 44], the IC50 in assay [1] came out at 3 nM. In assay [2], this compound registered a Caspase % of 104%. Besides, the Bir binding in assay [3] is 0.18 µM.
Taken in the same sequence, the figures for `CN[C@@H](C)C(=O)N[C@@H](Cc1ccc(OCCCCOc2ccc(C[C@H](NC(=O)[C@H](C)NC)C(=O)N3CCCC3C(=O)N[C@@H]3CCCc4ccccc43)cc2)cc1)C(=O)N1CCCC1C(=O)N[C@@H]1CCCc2ccccc21.Cl.Cl` (stereo partly shown) [Compound 45] were 2 nM, 136% and 0.15 µM.
Consider `CN[C@@H](C)C(=O)N[C@@H](CCCCNC(=O)c1cccc(C(=O)NCCCC[C@H](NC(=O)[C@H](C)NC)C(=O)N2CCC[C@H]2C(=O)N[C@@H]2CCCc3ccccc32)c1)C(=O)N1CCC[C@H]1C(=O)N[C@@H]1CCCc2ccccc21.Cl.Cl` [Compound 47], for which, in assay [1], the IC50 was 20 nM. Further, the Caspase % in assay [2] came out at 99%. This compound had a Bir binding in assay [3] of 0.19 µM.
In the case of `CN[C@@H](C)C(=O)N[C@@H](CCCCNC(=O)NCCCC[C@H](NC(=O)[C@H](C)NC)C(=O)N1CCC[C@H]1C(=O)N[C@@H]1CCCc2ccccc21)C(=O)N1CCC[C@H]1C(=O)N[C@@H]1CCCc2ccccc21.Cl.Cl` [Compound 48], the IC50 in assay [1] came out at 56 nM. In addition, the Caspase % in assay [2] is given as 103%. In assay [3], this compound displayed a Bir binding of 0.2 µM.
Consider `CN[C@@H](C)C(=O)N[C@@H](CCCCNC(=O)c1ccc(C(=O)NCCCC[C@H](NC(=O)[C@H](C)NC)C(=O)N2CCC[C@H]2C(=O)N[C@@H]2CCCc3ccccc32)cc1)C(=O)N1CCC[C@H]1C(=O)N[C@@H]1CCCc2ccccc21.Cl.Cl` [Compound 49], for which the IC50 in assay [1] came to 20 nM. In assay [2], this compound showed a Caspase % of 113%. The Bir binding in assay [3] was 0.19 µM.
For `CN[C@@H](C)C(=O)N[C@@H](CCCCNC(=O)CC(=O)NCCCC[C@H](NC(=O)[C@H](C)NC)C(=O)N1CCC[C@H]1C(=O)N[C@@H]1CCCc2ccccc21)C(=O)N1CCC[C@H]1C(=O)N[C@@H]1CCCc2ccccc21.Cl.Cl` [Compound 50], the IC50 in assay [1] worked out at 20 nM. Further, the Caspase % in assay [2] is 97%. The compound further had a Bir binding in assay [3] of 0.2 µM.
With `CC(=O)O[C@H]1C(=O)[C@@]2(C)[C@H]([C@H](OC(=O)c3ccccc3)[C@]3(O)C[C@H](OC(=O)[C@H](O)[C@@H](NC(=O)c4ccccc4)c4ccccc4)C(C)=C1C3(C)C)[C@]1(OC(C)=O)CO[C@@H]1C[C@@H]2O` [Paclitaxel], the “tumor response to treatment, single agent” value in assay [4] was “do not respond”.
